pIC50: −log10 of the molar value.
Experiments:
[1] = system: VCaP; assay: 10-day prostate cancer cell proliferation assay, VCaP; assay type: cell-based; conditions: Homo sapiens, VCaP, 240 h; 10 days exposure; WT, AR amplification, androgen-dependent
Description: (§1) Prostate cell lines were obtained from ATCC or DSMZ and cultured according to the distributor's recommendations. Prostate cancer cells were plated and incubated overnight. […] Cell viability was assessed using a CellTiter-Glo® assay (Promega) after 10 days drug exposure. The growth inhibitory effect was assessed by the concentration inhibiting growth by 50% using a nonlinear regression equation and a variable slope (Graphpad Prism).

[2] = system: MFM223; assay: 10-day CellTiter-Glo antiproliferative assay, MFM223; assay type: cell-based; conditions: Homo sapiens, MFM-223, 240 h, 10-day exposure, AR Low, ER −, Her2 −
Description: (§2) Breast cell lines were cultured according to the distributor's recommendations. The following day, cells were exposed to compounds up to 10 days. Cell viability was assessed using a CellTiter-Glo® assay (Promega) at the end of the incubation period. The growth inhibitory effect was assessed by the concentration inhibiting growth by 50% using a nonlinear regression equation and a variable slope (Graphpad Prism). The mRNA expression levels for the androgen receptor (HUGO: AR) was determined from the DepMap Portal database (release 19Q2).

[3] = system: AR-v7; assay: AR-v7 protein level by western blot in prostate cancer cells; assay type: cell-based
[4] = system: BT549; assay: 10-day CellTiter-Glo antiproliferative assay, BT549; assay type: cell-based; conditions: Homo sapiens, BT-549, 240 h, 10-day exposure, AR Low, ER −, Her2 −
Description: as §2

[5] = system: AR-negative prostate cancer cell lines DU145 and PC-3; assay: 10-day proliferation assay, AR-negative prostate cancer cell lines; assay type: cell-based; conditions: 10-day assay
Description: Two AR-negative prostate cancer cell lines DU145 and PC-3 were also evaluated.
as §1

[6] = system: MYC; assay: qPCR gene expression in VCaP, MYC; assay type: cell-based; conditions: Homo sapiens, 24 h
Description: (§3) RNA was extracted using Qiacube RNAeasy Mini (Qiagen). For all genes tested, the qPCR reactions were carried out in triplicate with 250 ng RNA per reaction and Taqman® primer-probes. GAPDH was used as a housekeeping gene.

[7] = system: AR target genes; assay: Reduction of AR target genes in VCaP cells; assay type: cell-based; conditions: Homo sapiens, 24 hr exposure
Description: as §3

[8] = system: KLK3 (PSA); assay: qPCR gene expression in 22Rv1, KLK3 (PSA); assay type: cell-based; conditions: Homo sapiens, 22Rv1, 24 h
Description: as §3

[9] = system: SPDEF; assay: qPCR gene expression in 22Rv1, SPDEF; assay type: cell-based; conditions: Homo sapiens, 22Rv1, 24 h
Description: as §3

[10] = system: TMPRSS2; assay: Taqman gene expression in AR-positive breast cancer cells, TMPRSS2; assay type: cell-based; conditions: 24 hours, read-out: IC50, TMPRSS2 mRNA
Description: AR-positive breast cancer cells were exposed to increasing concentrations of compounds for 24 hours. RNA was extracted and gene expression measured using Taqman® assays for TMPRSS2 and XBP1.

[11] = system: MYC; assay: qPCR gene expression in AR-v7+ prostate cancer cells, MYC; assay type: cell-based; conditions: 24 h
Description: (§4) AR-v7+ prostate cancer cells were exposed to compounds 1, 2, 3, or 4 for 24 h. RNA was extracted and gene expression was measured by qPCR using Taqman® primer-probes. GAPDH was used as a housekeeping gene.

[12] = system: SPDEF; assay: qPCR gene expression in VCaP, SPDEF; assay type: cell-based; conditions: Homo sapiens, 24 h
Description: as §3

[13] = system: MYC; assay: qPCR gene expression in 22Rv1, MYC; assay type: cell-based; conditions: Homo sapiens, 22Rv1, 24 h
Description: as §3

[14] = system: panel of 10 BRD representing the various branches of the bromodomain tree; assay: AlphaScreen panel of 10 bromodomains; assay type: binding
[15] = system: H3K27Ac; assay: H3K27Ac western blot in a prostate cancer cell line; assay type: cell-based
[16] = system: TMPRSS2; assay: qPCR gene expression in VCaP, TMPRSS2; assay type: cell-based; conditions: Homo sapiens, 24 h
Description: as §3

[17] = system: HCC1187; assay: 10-day CellTiter-Glo antiproliferative assay, HCC1187; assay type: cell-based; conditions: Homo sapiens, HCC1187, 240 h, 10-day exposure, AR High, ER −, Her2 −
Description: as §2

[18] = system: AR+ triple negative breast cancer xenograft; assay: AR+ triple negative breast cancer cell line derived xenograft; assay type: in vivo, NOD SCID mice; conditions: 50 mg/kg orally daily
Description: Briefly, AR-positive breast cancer tumor cells (1×107) were implanted subcutaneously in the flank of 6-8-week-old NOD SCID mice. Mice were randomized, and treatment started when mean tumor size reached 160 mm^3 (8 mice per cohort). […] Tumor volume (TV) was measured twice weekly by caliper and the tumor volume (mm^3) calculated as follows: TV=a×b×b/2, where “a” and “b” are long and short diameters of a tumor, respectively.
The average body weight loss was 3.7%.
The study was completed using methods analogous to those described in Example 7, above.
Three dosing cycles were completed for mice within these cohorts.
Mice in the 30 mg/kg cohort were dosed daily for three weeks.
Tumor volume was assessed at Day 14, Day 17, Day 21, Day 24, and Day 27 of the study.

[19] = system: TMPRSS2; assay: qPCR gene expression in 22Rv1, TMPRSS2; assay type: cell-based; conditions: Homo sapiens, 22Rv1, 24 h
Description: as §3

[20] = system: KLK3; assay: qPCR gene expression in AR-v7+ prostate cancer cells, KLK3; assay type: cell-based; conditions: 24 h
Description: as §4

With COC(=O)N1c2ccc3c(nc([C@H](O)c4cc(F)ccc4OC)n3[C@@H]3CCC[C@@H](C(=O)O)C3)c2CC[C@@H]1C [Compound 1, (1R,3R)-3-[(7S)-2-[(R)-(5-fluoro-2-methoxyphenyl)(hydroxy)methyl]-6-(methoxycarbonyl)-7-methyl-3H,6H,7H,8H,9H-imidazo[4,5-f]quinolin-3-yl]cyclohexane-1-carboxylic acid] as the compound, how does the pIC50 [1] read?
The pIC50 was 6.00 to 6.30.

What about the IC50 [2] of the same compound?
The IC50 was > 1 µM.

And the “AR-v7 reduction maintained after removal of compound” value ([3]; 22Rv1, after a 24 hr exposure)?
The value was 72 h.

What about the AR-v7 protein level ([3]; androgen-independent (AR-v7+) prostate cancer cells, western blot) of the same compound?
Its AR-v7 protein level is “reduced”.

And the IC50 [4]?
Its IC50 is > 1 µM.

And the “antiproliferative effect, AR-negative cell lines” value [5]?
Its value is “inactive”.

What about the IC50 [6] of the same compound?
The IC50 was 0.05 to 0.1 µM.

What about the pIC50 [7] of the same compound?
Its pIC50 is > 6.30.

And the IC50 [8]?
The IC50 was 0.01 to 0.05 µM.

What about the IC50 [9] of the same compound?
Its IC50 is > 0.1 µM.

And the pIC50 [10]?
Its pIC50 is > 7.00.

What about the pIC50 [11] of the same compound?
Its pIC50 is < 7.00.

And the IC50 [12]?
The IC50 was > 0.1 µM.

What about the IC50 [13] of the same compound?
The IC50 was > 0.1 µM.

What about the “activity against panel of bromodomains” value [14] of the same compound?
The value was “inactive against 8”.

And the pIC50 ([14]; read-out: IC50 in multiple assays of the panel of 10 bromodomains)?
Its pIC50 is < 5.00.

And the H3K27Ac level [15]?
The H3K27Ac level was “reduces H3K27Ac in a concentration-dependent manner”.

What about the IC50 [16] of the same compound?
Its IC50 is 0.01 to 0.05 µM.

What about the IC50 [17] of the same compound?
The IC50 was 0.2 to 0.5 µM.

What about the “average body weight loss” value [18] of the same compound?
Its value is 3.7%.

What about the “tumor growth inhibition (TGI)” value ([18]; end of treatment, versus vehicle control) of the same compound?
Its value is 104%.

And the IC50 [19]?
The IC50 was < 0.01 µM.

And the pIC50 [20]?
Its pIC50 is 7.30 to 8.00.
